Structures can show the parent of a compound that is named as a salt. Where two headings read alike, the source gives them in different places.
Experiments:
rat primary hepatocytes [1] = test system: rat primary hepatocytes
HepG2 cells [2] = conditions: cited from earlier work
rat primary hepatocytes [3] = experiment: MMP assay in rat primary hepatocytes; conditions: for IC50: Rattus norvegicus, Hepatocyte, read-out: MMP assays IC50 (µM) Rat Hepatocytes
HepG2 cells [4] = experiment: cells; conditions: Homo sapiens; for IC50: HepG2, read-out: MMP assays IC50 (µM) HepG2; for Emax: HepG2, read-out: MMP assays efficacy (%) HepG2
[5] = read-out: MMP assays IC50 (µM) qHTS-HepG2
[6] = read-out: MMP assays IC50 (µM), qHTS-HepG2

Row | Compound | MMP assays efficacy (%) Rat Hepatocytes (rat primary hepatocytes [1]) | MMP assays efficacy (%) qHTS-HepG2 (HepG2 cells [2]) [%] | IC50 (HepG2 cells [2]; [5]) [µM] | IC50 (rat primary hepatocytes [3]) [µM] | IC50 (HepG2 cells [4]) [µM] | Emax (HepG2 cells [4]) [%] | IC50 (HepG2 cells [2]; [6]) [µM] | MMP assays IC50 (µM) Rat Hepatocytes (rat primary hepatocytes [3])
1 | CN1C(=O)[C@@H](NC(=O)c2cc3ccccc3[nH]2)N=C(c2ccccc2)c2ccccc21 [Devazepide] | -50±14% | -81±7 | 12.5 ± 5.62 | 15.6 ± 7.19 | 10.9 | 63 | – | –
2 | O=c1c(O)c(-c2ccc(O)cc2)oc2cc(O)cc(O)c12 [Kaempferol] | -84±55% | -100±8 | – | 24.1 ± 8.76 | 6.76 | 96 | 2.56 ± 3.04 | –
3 | CC(COc1ccccc1)N(CCCl)Cc1ccccc1 (centres unmarked) [Phenoxybenzamine hydrochloride] | inactive | -99±7 | – | – | 35.5 | 63 | 48.8 ± 9.17 | inactive
4 | Cc1c(O)cccc1C(=O)N[C@@H](CSc1ccccc1)[C@H](O)CN1C[C@H]2CCCC[C@H]2C[C@H]1C(=O)NC(C)(C)C [Nelfinavir mesylate] | -61±48% | -120±19 | – | 8.68 ± 12.2 | 30.8 | 97 | 11.9 ± 6.92 | –
5 | O=P(OCC(Br)CBr)(OCC(Br)CBr)OCC(Br)CBr (centres unmarked) [Tris(2,3-dibromopropyl) phosphate] | -91±11% | -99±7 | – | 44 ± 10.7 | 50.1 | 110 | 45.8 ± 8.72 | –
6 | O=C1c2cccc(O)c2C(=O)c2c(O)cccc21 [Danthron] | -40±18% | -78±3 | 4.66 ± 1.19 | 5.97 ± 5.35 | 15.5 | 91 | – | –
7 | Cc1ccc2c(c1N)C(=O)c1ccccc1C2=O [Compound 1-Amino-2-methylanthraquinone] | -85±28% | -82±1 | 0.64 ± 0.08 | 5.28 ± 3.3 | 2.51 | 92 | – | –
8 | O=C1C2(Cl)C3(Cl)C4(Cl)C(Cl)(Cl)C5(Cl)C3(Cl)C1(Cl)C5(Cl)C24Cl (centres unmarked) [Kepone] | -107±26% | -101±8 | – | 10.2 ± 9.25 | 2.82 | 99 | 0.93 ± 0.65 | –
9 | COC(=O)N(C(=O)N1CO[C@@]2(C(=O)OC)Cc3cc(Cl)ccc3C2=N1)c1ccc(OC(F)(F)F)cc1 [Indoxacarb] | -88±26% | -83±20 | – | 34.4 ± 5.58 | 15.3 | 57 | 12.7 ± 3.65 | –
10 | COC(=O)[C@]12CCC(C)(C)C[C@H]1[C@H]1C(=O)C=C3[C@@]4(C)C=C(C#N)C(=O)C(C)(C)[C@@H]4CC[C@@]3(C)[C@]1(C)CC2 [Bardoxolone methyl] | -90±57% | -114±5 | 5.11 ± 1.27 | 17.4 ± 2 | 17.3 | 122 | – | –
11 | Oc1ccc(Oc2ccccc2)cc1 [Compound 4-Phenoxyphenol] | inactive | -106±22 | 28 ± 10.6 | – | 47.6 | 104 | – | inactive
12 | CCCSP(=O)(OCC)Oc1ccc(Br)cc1Cl (centres unmarked) [Profenofos] | -61±47% | -92±20 | – | 13.2 ± 3.19 | 6.15 | 84 | 2.54 ± 1.84 | –
13 | O=[N+]([O-])c1ccc(Oc2ccc(C(F)(F)F)cc2[N+](=O)[O-])cc1 [Fluorodifen] | -114±10% | -89±20 | – | 24.1 ± 15 | 28.2 | 94 | 27.3 ± 25.1 | –
14 | ClC1=C(Cl)C2(Cl)C3C4C=CC(C4)C3C1(Cl)C2(Cl)Cl (centres unmarked) [Aldrin] | inactive | -86±11 | 31.2 ± 7.21 | – | 39.8 | 106 | – | inactive
15 | CC(C)=CCC1=C(O)C(=O)c2ccccc2C1=O [Lapachol] | inactive | -117±24 | – | – | 31.6 | 113 | 26.1 ± 1.7 | inactive
16 | ClC1=C(Cl)C2(Cl)C3C(Cl)C=CC3C1(Cl)C2(Cl)Cl (centres unmarked) [Heptachlor] | inactive | – | – | – | 31.6 | 87 | 39.4 ± 17.9 | inactive
17 | O=S(=O)(c1ccc(Cl)cc1)c1ccc(Cl)cc1 [4,4'-Dichlorodiphenyl sulfone] | -72±26% | -99±22 | 21.3 ± 6.06 | 29.9 ± 2.43 | 35.5 | 96 | – | –

— paper PMC6112376, “Comprehensive Analyses and Prioritization of Tox21 10K Chemicals Affecting Mitochondrial Function by in-Depth Mechanistic Studies” (Environmental Health Perspectives, 2018)
